Reference: patent US10294202B2, “Pyrrolidinones as herbicides” (FMC Corporation, priority 2013, dated 2019)

How the values were obtained:
Assay in all cases: Test E preemergence herbicide test
Set-up in all cases: key: 0 = no effect, 100 = complete control
morningglory = type: in vivo, Ipomoea coccinea
Method in brief: (§1)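 Test chemicals, formulated in a surfactant-containing non-phytotoxic solvent blend, are applied preemergence to seeded silt loam soil. After 21 days in the greenhouse, response is scored visually relative to controls, where 100 means complete control and 0 means no effect.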

crabgrass, large = type: in vivo, Digitaria sanguinalis
Method in brief: as §1

nutsedge, yellow = type: in vivo, Cyperus esculentus
Description: (§2) Seeds of plant species selected from corn (Zea mays), soybean (Glycine max), velvetleaf (Abutilon theophrasti), lambsquarters (Chenopodium album), wild poinsettia (Euphorbia heterophylla), pigweed, palmer (palmer pigweed, Amaranthus palmeri), waterhemp (common waterhemp, Amaranthus rudis), surinam grass (Brachiaria decumbens), crabgrass, large (large crabgrass, Digitaria sanguinalis), crabgrass, Brazil (Brazilian crabgrass, Digitaria horizontalis), panicum, fall (fall panicum, Panicum dichotomiflorum), foxtail, giant (giant foxtail, Setaria faberii), foxtail, green (green foxtail, Setaria viridis), goosegrass (Eleusine indica), johnsongrass (Sorghum halepense), ragweed (common ragweed, Ambrosia elatior), barnyardgrass (Echinochloa crus-galli), sandbur (southern sandbur, Cenchrus echinatus), arrowleaf […] rhombifolia), ryegrass, Italian (Italian ryegrass, Lolium multiflorum), dayflower, VA (Virginia dayflower, Commelina virginica), field bindweed (Convolvulus arvensis), morningglory (Ipomoea coccinea), nightshade (eastern black nightshade, Solanum ptycanthum), kochia (Kochia scoparia), nutsedge, yellow (yellow nutsedge, Cyperus esculentus), cocklebur (common cocklebur, Xanthium strumarium), smartweed (ladysthumb smartweed, Polygonum Persicaria) and beggarticks (hairy beggarticks, Bidens pilosa), were planted into a silt loam soil and treated preemergence with test chemicals formulated in a non-phytotoxic solvent mixture which included a surfactant. Treated plants and controls were maintained in a greenhouse for 21 days, after which time all species were compared to controls and visually evaluated. Plant response ratings, summarized in Table E, are based on a scale of 0 to 100 where 0 is no effect and 100 is complete control. A dash (-) response means no test result.

arrowleaf sida = type: in vivo, Sida rhombifolia
Method in brief: as §1

foxtail, giant = type: in vivo, Setaria faberii
Description: as §2

ryegrass, Italian = type: in vivo, Lolium multiflorum
Description: as §2

| SMILES | Plant response rating, Morningglory (morningglory; 31 g ai/ha) | Plant response rating, Morningglory (morningglory; 62 g ai/ha) | Plant response rating, Morningglory (morningglory; 125 g ai/ha) | Plant response rating, Morningglory (morningglory; 250 g ai/ha) | Plant response rating, Crabgrass, Large (crabgrass, large; 31 g ai/ha) | Plant response rating, Crabgrass, Large (crabgrass, large; 62 g ai/ha) | Plant response rating, Crabgrass, Large (crabgrass, large; 125 g ai/ha) | Plant response rating, Crabgrass, Large (crabgrass, large; 250 g ai/ha) | Plant response rating, Nutsedge, Yellow (nutsedge, yellow; 31 g ai/ha) | Plant response rating, Nutsedge, Yellow (nutsedge, yellow; 62 g ai/ha) | Plant response rating, Nutsedge, Yellow (nutsedge, yellow; 125 g ai/ha) | Plant response rating, Nutsedge, Yellow (nutsedge, yellow; 250 g ai/ha) | Plant response rating, Arrowleaf Sida (arrowleaf sida; 31 g ai/ha) | Plant response rating, Arrowleaf Sida (arrowleaf sida; 62 g ai/ha) | Plant response rating, Arrowleaf Sida (arrowleaf sida; 125 g ai/ha) | Plant response rating, Arrowleaf Sida (arrowleaf sida; 250 g ai/ha) | Plant response rating, Foxtail, Giant (foxtail, giant; 31 g ai/ha) | Plant response rating, Foxtail, Giant (foxtail, giant; 62 g ai/ha) | Plant response rating, Foxtail, Giant (foxtail, giant; 125 g ai/ha) | Plant response rating, Foxtail, Giant (foxtail, giant; 250 g ai/ha) | other results |
| --- | --- | --- | --- | --- | --- | --- | --- | --- | --- | --- | --- | --- | --- | --- | --- | --- | --- | --- | --- | --- | --- |
| O=C1NCC(c2ccc(F)cc2)C1C(=O)Nc1ccccc1F (racemic) [Compound 16] | 0 | 0 | 0 | 0 | 20 | 30 | 75 | 98 | 0 | 0 | 0 | 0 | 0 | 0 | 0 | 0 | 0 | 15 | 25 | 95 | Plant response rating, Morningglory (morningglory; 16 g ai/ha): 0; Plant response rating, Crabgrass, Large (crabgrass, large; 16 g ai/ha): 10; Plant response rating, Nutsedge, Yellow (nutsedge, yellow; 16 g ai/ha): 0; Plant response rating, Arrowleaf Sida (arrowleaf sida; 16 g ai/ha): 0; Plant response rating, Foxtail, Giant (foxtail, giant; 16 g ai/ha): 0; Plant response rating, Ryegrass, Italian (ryegrass, Italian; 16 g ai/ha): 0; Plant response rating, Ryegrass, Italian (ryegrass, Italian; 31 g ai/ha): 0; Plant response rating, Ryegrass, Italian (ryegrass, Italian; 62 g ai/ha): 0; Plant response rating, Ryegrass, Italian (ryegrass, Italian; 125 g ai/ha): 0; Plant response rating, Ryegrass, Italian (ryegrass, Italian; 250 g ai/ha): 30 |
| O=C1NCC(c2ccc(C(F)(F)F)cc2)C1C(=O)Nc1ccc(F)c(F)c1F (stereo not drawn) [Compound 232] | 0 | 0 | 0 | 35 | 95 | 98 | 98 | 98 | 0 | 0 | 0 | 0 | 0 | 20 | 65 | 90 | 35 | 90 | 95 | 98 | Plant response rating, Ryegrass, Italian (ryegrass, Italian; 31 g ai/ha): 0; Plant response rating, Ryegrass, Italian (ryegrass, Italian; 62 g ai/ha): 10; Plant response rating, Ryegrass, Italian (ryegrass, Italian; 125 g ai/ha): 20; Plant response rating, Ryegrass, Italian (ryegrass, Italian; 250 g ai/ha): 40 |
